Measured values published in PubChem BioAssay (NCI).
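Five concentrations, 48 hours, 96-well plates. At the TGI there is no net growth.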

Key:
Assay in all cases: growth of human tumour cells (NCI), 48 h
786-0 renal = test system: 786-0 renal
A498 renal = test system: A498 renal
A549 NSCLC = test system: A549 NSCLC
ACHN renal = test system: ACHN renal
CAKI-1 renal = test system: CAKI-1 renal
CCRF-CEM leukemia = test system: CCRF-CEM leukemia
COLO 205 colon = test system: COLO 205 colon
DLD-1 colon = test system: DLD-1 colon
DMS 114 small cell lung = test system: DMS 114 small cell lung
DMS 273 small cell lung = test system: DMS 273 small cell lung
EKVX NSCLC = test system: EKVX NSCLC
HCC-2998 colon = test system: HCC-2998 colon
HCT-116 colon = test system: HCT-116 colon
HCT-15 colon = test system: HCT-15 colon
HL-60(TB) leukemia = test system: HL-60(TB) leukemia
HOP-18 NSCLC = test system: HOP-18 NSCLC
HOP-62 NSCLC = test system: HOP-62 NSCLC
HOP-92 NSCLC = test system: HOP-92 NSCLC
HT29 colon = test system: HT29 colon
IGROV1 ovarian = test system: IGROV1 ovarian
K-562 leukemia = test system: K-562 leukemia
KM12 colon = test system: KM12 colon
KM20L2 colon = test system: KM20L2 colon
LXFL 529 NSCLC = test system: LXFL 529 NSCLC
M14 melanoma = test system: M14 melanoma
M19-MEL melanoma = test system: M19-MEL melanoma
MALME-3M melanoma = test system: MALME-3M melanoma
MOLT-4 leukemia = test system: MOLT-4 leukemia
NCI-H226 lung = test system: NCI-H226 lung
NCI-H23 lung = test system: NCI-H23 lung
NCI-H460 lung = test system: NCI-H460 lung
NCI-H522 lung = test system: NCI-H522 lung
OVCAR-3 ovarian = test system: OVCAR-3 ovarian
OVCAR-4 ovarian = test system: OVCAR-4 ovarian
OVCAR-5 ovarian = test system: OVCAR-5 ovarian
OVCAR-8 ovarian = test system: OVCAR-8 ovarian
RPMI-8226 leukemia = test system: RPMI-8226 leukemia
SF-295 CNS = test system: SF-295 CNS
SF-539 CNS = test system: SF-539 CNS
SK-MEL-2 melanoma = test system: SK-MEL-2 melanoma
SK-MEL-28 melanoma = test system: SK-MEL-28 melanoma
SK-MEL-5 melanoma = test system: SK-MEL-5 melanoma
SK-OV-3 ovarian = test system: SK-OV-3 ovarian
SN12C renal = test system: SN12C renal
SNB-19 CNS = test system: SNB-19 CNS
SNB-75 CNS = test system: SNB-75 CNS
SNB-78 CNS = test system: SNB-78 CNS
SW-620 colon = test system: SW-620 colon
TK-10 renal = test system: TK-10 renal
U251 CNS = test system: U251 CNS
UACC-257 melanoma = test system: UACC-257 melanoma
UACC-62 melanoma = test system: UACC-62 melanoma
UO-31 renal = test system: UO-31 renal
XF 498 CNS = test system: XF 498 CNS
BT-549 breast = test system: BT-549 breast
DU-145 prostate = test system: DU-145 prostate
HS 578T breast = test system: HS 578T breast
LOX IMVI melanoma = test system: LOX IMVI melanoma
MCF7 breast = test system: MCF7 breast
MDA-MB-231 breast = test system: MDA-MB-231 breast
MDA-MB-435 = test system: MDA-MB-435
MDA-N = test system: MDA-N
NCI/ADR-RES ovarian = test system: NCI/ADR-RES ovarian
PC-3 prostate = test system: PC-3 prostate
RXF 393 renal = test system: RXF 393 renal
SF-268 CNS = test system: SF-268 CNS
SR leukemia = test system: SR leukemia
T-47D breast = test system: T-47D breast

Measured: TGI

COc1ccc2c3c([nH]c2c1[N+](=O)[O-])C(C)N(C)CC3 (configuration not stated)
95.2 µM: CCRF-CEM leukemia
84.9 µM: HOP-18 NSCLC
40.1 µM: K-562 leukemia
42.6 µM: HT29 colon
not listed: BT-549 breast | DU-145 prostate | HS 578T breast | LOX IMVI melanoma | MCF7 breast | MDA-MB-231 breast | MDA-MB-435 | MDA-N | NCI/ADR-RES ovarian | PC-3 prostate | RXF 393 renal | SF-268 CNS | SR leukemia | T-47D breast
> 100 µM: all other assays above

O=C(NCP(=O)(c1ccccc1)c1ccccc1)OCc1ccccc1
not listed: DLD-1 colon | DMS 114 small cell lung | DMS 273 small cell lung | HOP-18 NSCLC | KM20L2 colon | LXFL 529 NSCLC | M19-MEL melanoma | SNB-78 CNS | UACC-257 melanoma | XF 498 CNS
> 100 µM: all other assays above
